In data set [1] the test system is HT-1080. In words: Cytotoxicity against human HT1080 cells. The format is functional, cell-based.
Data set [2] is described as follows: (§1) Toxicity in human HT1080 cells assessed as reduction of cell growth at 1 uM after 24 hrs. It counts as cell-based, HT-1080. To be noted: HT1080 cells, read-out: Activity.
Data set [3] relates to HT-1080. As to the kind of experiment: Reduction of MMP2 mRNA level in human HT1080 cells at 1 uM after 24 hrs by RT-PCR analysis relative to control. The format is functional, cell-based.
Data set [4] deals with HT-1080. In words: Antiinvasive activity in human HT1080 cells assessed as reduction of cell number at 1 uM after 22 hrs by matrigel invasion assay. It counts as functional. The arrangement: scale not given: the % may be the effect or the level left.
Data set [5] addresses Matrix metalloproteinase-9 (Homo sapiens) (UniProt P14780). As to the kind of experiment: Inhibition of MMP9 activity in human HT1080 cells at 1 uM after 24 hrs. The format is cell-based. To be noted: HT-1080.
The target in data set [6] is 72 kDa type IV collagenase (Homo sapiens) (UniProt P08253). In words: Inhibition of MMP2 activity in human HT1080 cells at 1 uM after 24 hrs. To be noted: HT-1080. The format is cell-based.
72 kDa type IV collagenase (Homo sapiens), sequence (P08253 110-660 limits assumed): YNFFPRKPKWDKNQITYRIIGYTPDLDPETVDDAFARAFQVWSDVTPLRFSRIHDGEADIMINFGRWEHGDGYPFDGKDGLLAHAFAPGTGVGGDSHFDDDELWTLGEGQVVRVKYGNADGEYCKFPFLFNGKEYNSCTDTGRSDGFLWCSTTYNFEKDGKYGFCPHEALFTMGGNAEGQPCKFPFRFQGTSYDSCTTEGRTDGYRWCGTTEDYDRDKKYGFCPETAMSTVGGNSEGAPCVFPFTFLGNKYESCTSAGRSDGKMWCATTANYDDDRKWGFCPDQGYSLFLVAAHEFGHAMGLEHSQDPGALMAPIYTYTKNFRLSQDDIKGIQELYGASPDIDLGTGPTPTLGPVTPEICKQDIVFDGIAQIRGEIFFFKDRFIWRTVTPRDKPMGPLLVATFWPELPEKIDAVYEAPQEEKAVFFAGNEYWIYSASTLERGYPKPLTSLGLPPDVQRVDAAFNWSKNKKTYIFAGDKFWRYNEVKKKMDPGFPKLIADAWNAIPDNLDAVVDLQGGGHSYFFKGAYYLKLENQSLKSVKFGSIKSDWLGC
Data set [7] relates to HT-1080. As to the kind of experiment: Reduction of MMP9 mRNA level in human HT1080 cells at 1 uM after 24 hrs by RT-PCR analysis relative to control. The format is functional.
The test system of data set [8] is HT-1080. As to the kind of experiment: Induction of RECK mRNA expression in human HT1080 cells at 1 uM after 24 hrs by RT-PCR analysis relative to control. It counts as functional.
The subject of data set [9] is HT-1080. In words: Antiinvasive activity in human HT1080 cells at 50 uM. The format is functional.
The subject of data set [10] is HT-1080. In words: Antiinvasive activity in human HT1080 cells at 30 uM. The format is functional.
The subject of data set [11] is HT-1080. As to the kind of experiment: Cytotoxicity against human HT1080 cells assessed as growth inhibition at 4 to 10 uM after 72 hrs by trypan blue dye exclusion assay relative to control. It counts as functional.
Data set [12] has as its system HT-1080. As to the kind of experiment: Cell cycle arrest in human HT1080 cells assessed as accumulation at S phase at 10 uM after 72 hrs using propidium iodide staining by FACS analysis relative to control. It counts as functional. A general note: Flow cytometry measures light scatter and fluorescence of single cells or particles in a stream.
Data set [13] deals with HT-1080. As to the kind of experiment: Cell cycle arrest in human HT1080 cells assessed as accumulation at G0/G1 phase at 1 uM after 72 hrs using propidium iodide staining by FACS analysis relative to control. It counts as functional.
Data set [14] has as its system HT-1080. As to the kind of experiment: Cell cycle arrest in human HT1080 cells assessed as accumulation at G2/M phase at 1 uM after 72 hrs using propidium iodide staining by FACS analysis relative to control. It counts as functional.
Data set [15] has as its system HT-1080. As to the kind of experiment: Induction of RECK protein expression in human HT1080 cells at 4 uM after 24 hrs by electrophoresis analysis relative to control. The format is functional.
The subject of data set [16] is HT-1080. As to the kind of experiment: Cell cycle arrest in human HT1080 cells assessed as accumulation at G2/M phase at 4 uM after 72 hrs using propidium iodide staining by FACS analysis relative to control. It counts as functional.
In data set [17] the test system is HT-1080. In words: Induction of apoptosis in human HT1080 cells assessed as increase in caspase-3 activity at 10 uM relative to control. It counts as functional.
Data set [18] deals with HT-1080. In words: Induction of RECK protein expression in human HT1080 cells at 1 uM after 24 hrs by electrophoresis analysis relative to control. It counts as functional.
Data set [19] relates to HT-1080. In words: Induction of apoptosis in human HT1080 cells assessed as increase in caspase-3 activity at 4 uM relative to control. It counts as functional.
The subject of data set [20] is HT-1080. As to the kind of experiment: Cell cycle arrest in human HT1080 cells assessed as accumulation at S phase at 4 uM after 72 hrs using propidium iodide staining by FACS analysis relative to control. It counts as functional.
Data set [21] concerns HT-1080. In words: Induction of RECK protein expression in human HT1080 cells after 24 hrs by electrophoresis analysis relative to control. The format is functional, cell-based.
Data set [22] deals with HT-1080. In words: Cell cycle arrest in human HT1080 cells assessed as accumulation at G0/G1 phase at 10 uM after 72 hrs using propidium iodide staining by FACS analysis relative to control. The format is functional.
Data set [23] can be described thus: Cytotoxicity against human HuCCT1 cells. It counts as functional, cell-based. To be noted: HuCCT-1.
In data set [24] the test system is HT-1080. As to the kind of experiment: Reduction of MMP9 level in human HT1080 cells after 24 to 72 hrs by gelatin zymography analysis. The format is functional, cell-based.
Data set [25] relates to HT-1080. In words: Reduction of MMP2 level in human HT1080 cells after 24 to 72 hrs by gelatin zymography analysis. The format is functional, cell-based.
The test system of data set [26] is HT-1080. As to the kind of experiment: Cytotoxicity against human HT1080 cells assessed as growth inhibition after 72 hrs by trypan blue dye exclusion assay. It counts as functional, cell-based. To be noted: HT-1080, 72 h.
For data set [27], the system named is HT-1080. In words: Cell cycle arrest in human HT1080 cells assessed as accumulation at G0/G1 phase at 4 uM after 72 hrs using propidium iodide staining by FACS analysis relative to control. It counts as functional.
For data set [28], the system named is HT-1080. As to the kind of experiment: Cell cycle arrest in human HT1080 cells assessed as accumulation at S phase after 72 hrs using propidium iodide staining by FACS analysis. The format is functional, cell-based.
Data set [29] deals with HT-1080. In words: Cell cycle arrest in human HT1080 cells assessed as accumulation at S phase at 1 uM after 72 hrs using propidium iodide staining by FACS analysis relative to control. It counts as functional.
In data set [30] the test system is HT-1080. In words: Reduction of proMMP9 level in human HT1080 cells after 24 to 72 hrs by gelatin zymography analysis. It counts as functional, cell-based.
Data set [31] concerns HT-1080. In words: Cell cycle arrest in human HT1080 cells assessed as accumulation at G2/M phase at 10 uM after 72 hrs using propidium iodide staining by FACS analysis relative to control. It counts as functional.
Data set [32] has as its system HT-1080. In words: Reduction of proMMP2 level in human HT1080 cells after 24 to 72 hrs by gelatin zymography analysis. It counts as functional, cell-based.
Data set [33] has as its system HT-1080. In words: Induction of apoptosis in human HT1080 cells assessed as increase in caspase-3 activity at 1 uM relative to control. The format is functional, cell-based.
For data set [34], the system named is HT-1080. The description is as §1. To be noted: ht-1080, 24 h, 1 µM. It counts as cell-based.

The values below come from ChEMBL document CHEMBL2417488, “Inhibitory effects of p-dodecylaminophenol on the invasiveness of human fibrosarcoma cell line HT1080” (Bioorg Med Chem, 2013).

Calls of active or inactive are those of the source. No cut-off for these calls is given here.

Matrix metalloproteinase-9 (Homo sapiens), sequence (P14780 whole entry): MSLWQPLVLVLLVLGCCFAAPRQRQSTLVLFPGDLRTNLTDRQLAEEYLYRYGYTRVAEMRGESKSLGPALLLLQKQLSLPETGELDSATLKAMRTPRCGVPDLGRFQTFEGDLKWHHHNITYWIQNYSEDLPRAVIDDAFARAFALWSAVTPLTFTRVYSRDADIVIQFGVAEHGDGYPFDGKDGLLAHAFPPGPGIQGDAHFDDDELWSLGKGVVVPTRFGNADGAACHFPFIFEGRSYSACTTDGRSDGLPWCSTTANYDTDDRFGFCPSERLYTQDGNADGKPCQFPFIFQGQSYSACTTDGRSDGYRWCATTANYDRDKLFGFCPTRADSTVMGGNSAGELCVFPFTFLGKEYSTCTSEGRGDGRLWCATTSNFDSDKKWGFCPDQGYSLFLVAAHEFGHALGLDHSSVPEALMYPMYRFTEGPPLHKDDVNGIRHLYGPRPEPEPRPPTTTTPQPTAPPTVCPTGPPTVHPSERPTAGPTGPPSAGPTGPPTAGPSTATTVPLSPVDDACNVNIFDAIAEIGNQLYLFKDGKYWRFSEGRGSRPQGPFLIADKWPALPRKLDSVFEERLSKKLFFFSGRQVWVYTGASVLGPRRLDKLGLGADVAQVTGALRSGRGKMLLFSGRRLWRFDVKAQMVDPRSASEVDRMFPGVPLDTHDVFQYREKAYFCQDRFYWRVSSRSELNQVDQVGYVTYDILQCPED

For the compound `COc1cc(C2Oc3cc([C@H]4Oc5cc(O)cc(O)c5C(=O)[C@@H]4O)ccc3OC2CO)ccc1O` (some centres undefined) [SILIBININ], half-maximal inhibition in [1] (IC50) required 400 µM.
For `O=C(CCCCCCSc1ccc2ccccc2c1)NO`, the 50% inhibitory concentration (IC50) (usually the concentration needed to halve the response being measured) in data set [1] was found to be 3 µM.
Regarding `CC1=C(/C=C/C(C)=C/C=C/C(C)=C/C(=O)Nc2ccc(O)cc2)C(C)(C)CCC1` [FENRETINIDE], in data set [2], the inhibition at 24 h, 1 µM was 4%. Besides, the result in data set [3], in data set [7] and in data set [8] was inactive. In data set [4], the Activity stood at 20%. For the same compound, the inhibition entry in data set [5] and in data set [6] was “inactive” throughout.
In the case of `COC(=O)[C@H](CCSC)NC(=O)c1ccc(CNCc2c[nH]cn2)cc1-c1ccccc1C`, the IC50 in data set [1] is > 50 µM.
For `O=S(=O)(c1cccc2c(O)nccc12)N1CCCNCC1` [HYDROXYFASUDIL], the Activity in [9] is 50%.
In the case of `C[C@@H](N)c1ccc(C(=O)Nc2ccncc2)cc1.Cl`, the Activity in [10] came to 50%.
For the compound `CCCCCCCCCCCCNc1ccc(O)cc1`, the “growth inhibition (GI)” value in [11] is given as 77%. In addition, the Activity in data set [12] is reported as 19.1%; in data set [13], 63.1%; in data set [14], 28.2%; in data set [15], 175%; in data set [16], 30.4%; in data set [18] it was 140%. Moreover, the Activity was 11% in data set [20]; “Dose-dependent effect” in [21]; 80% in data set [4]; 50.6% in data set [22]; “Dose-dependent effect” in data set [24]; “Dose-dependent effect” in [25]. The Activity in data set [7] is 60%; in data set [27], 58.5%; in [28] it was “Dose-dependent effect”; in data set [29], 8.7%; in data set [30] it was “Dose-dependent effect”; in [31], 30.3%. For the same compound, the Activity entry in [32] was “Dose-dependent effect”; in [8], 162%. Moreover, the inhibition at 24 h, 1 µM in data set [2] stood at 8%. Also, the figures for the “fold change (FC)” value in data set [17] and in data set [19] were 4.8 and 3.2, respectively. Also, the outcome in data set [3] and in data set [33] was inactive. This compound also registered an inhibition in [5] of 50%. Moreover, the concentration for half-maximal inhibition (IC50) in [23] is 2 µM; in data set [24], 0.7 µM; in data set [25], 2.4 µM; in [26], 1 µM; in data set [30], 0.9 µM; in [32], > 10 µM. Also, the inhibition entry in data set [6] is “inactive”.
Turning to `O=S(=O)(c1cccc2cnccc12)N1CCCNCC1` [FASUDIL], the Activity in data set [9] is on record as 26%.
For `CC1=C(/C=C/C(C)=C/C=C/C(C)=C/C(=O)O)C(C)(C)CCC1` [TRETINOIN], in [34], the Activity result is “Non-toxic”. In addition, the outcome in data set [3], in [4], in data set [7] and in [8] was inactive. For the same compound, the inhibition entry in [5] and in [6] was “inactive” throughout.
